Data published in ChEMBL document CHEMBL1135459, “Novel class of potent 4-arylalkyl substituted 3-isoxazolol GABA(A) antagonists: synthesis, pharmacology, and molecular modeling” (J Med Chem, 2002).

Legend:
[1] = test system: Mus musculus; experiment: Convulsant effect in mice after intracerebroventricular (icv) administration; assay type: functional; settings: central
[2] = test system: Mus musculus; experiment: Convulsant effect in mice after subcutaneous (sc) administration; assay type: functional
[3] = biological target: Gamma-aminobutyric acid type B receptor subunit 1 (Rattus norvegicus, UniProt Q9Z0U4); experiment: Affinity for GABA-B receptor by inhibiting GABA uptake into rat brain synaptosomes; assay type: subcellular
[4] = species on record: Mus musculus; experiment: Electrophysiology using Whole-cell patch-clamp recordings in mouse embryos; assay type: functional, organism-based
[5] = biological target: GABA-A receptor; anion channel; experiment: Affinity for GABA-A receptor alpha by inhibiting binding of [3H]muscimol to rat brain synaptosomes; assay type: subcellular

Sequence of Gamma-aminobutyric acid type B receptor subunit 1 (Q9Z0U4 whole entry): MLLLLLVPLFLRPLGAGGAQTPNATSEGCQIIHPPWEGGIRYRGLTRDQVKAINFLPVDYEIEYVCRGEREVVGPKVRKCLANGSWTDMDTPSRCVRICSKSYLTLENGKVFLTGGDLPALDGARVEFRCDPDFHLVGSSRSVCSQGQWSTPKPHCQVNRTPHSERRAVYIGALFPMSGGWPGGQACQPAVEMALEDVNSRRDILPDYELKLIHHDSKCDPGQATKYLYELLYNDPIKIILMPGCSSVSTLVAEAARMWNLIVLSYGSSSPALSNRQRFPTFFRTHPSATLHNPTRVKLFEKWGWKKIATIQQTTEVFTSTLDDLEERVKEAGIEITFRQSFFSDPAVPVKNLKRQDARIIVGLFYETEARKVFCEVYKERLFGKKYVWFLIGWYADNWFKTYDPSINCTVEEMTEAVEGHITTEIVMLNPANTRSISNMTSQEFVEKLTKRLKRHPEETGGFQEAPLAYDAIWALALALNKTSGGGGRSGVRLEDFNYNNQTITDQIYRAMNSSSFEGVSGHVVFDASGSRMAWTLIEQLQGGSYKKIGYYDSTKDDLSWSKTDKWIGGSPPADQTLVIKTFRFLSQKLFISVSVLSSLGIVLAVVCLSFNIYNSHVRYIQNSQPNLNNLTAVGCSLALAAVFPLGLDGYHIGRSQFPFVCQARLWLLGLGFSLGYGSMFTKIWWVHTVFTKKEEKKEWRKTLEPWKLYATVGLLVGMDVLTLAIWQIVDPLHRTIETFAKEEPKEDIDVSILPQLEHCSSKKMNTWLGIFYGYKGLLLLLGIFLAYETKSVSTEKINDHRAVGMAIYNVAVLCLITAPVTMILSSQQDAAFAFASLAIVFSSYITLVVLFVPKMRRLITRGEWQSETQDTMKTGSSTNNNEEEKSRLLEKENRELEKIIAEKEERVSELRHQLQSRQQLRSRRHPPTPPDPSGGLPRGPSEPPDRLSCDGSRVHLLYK

IC50 [3] [µM] | Ki [5] [µM] | Structure (SMILES) | ED50 [1] [µmol/kg] | ED50 [2] [µmol/kg] | IC50 [4] [µM]
> 10 |  | Oc1noc(C2CCNCC2)c1Cc1ccc2ccccc2c1 | 0.024 | > 51 | 0.37
> 100 | 1.1 | Oc1noc(C2CCNCC2)c1CCCc1ccccc1 |  |  | 0.53
> 10 | 5 | Oc1noc(C2CCNCC2)c1CCc1ccccc1 |  |  | 4.1
> 100 |  | Oc1noc(C2CCNCC2)c1Cc1ccccc1 |  |  | 4
> 10 |  | Oc1noc(C2CCNCC2)c1Cc1c2ccccc2cc2ccccc12 |  |  | 1.3
> 100 | 37 | CC1(c2cc(O)no2)CCNCC1 |  |  | 
> 10 | 0.4 | Oc1noc(C2CCNCC2)c1Cc1ccc(-c2ccccc2)cc1 |  |  | 0.71
> 10 | 0.1 | Oc1noc(C2CCNCC2)c1Cc1cccc2ccccc12 |  |  | 0.48
> 10 | 0.068 | Oc1noc(C2CCNCC2)c1CCC(c1ccccc1)c1ccccc1 | 0.21 | > 45 | 0.02
> 10 |  | Oc1noc(C2CCNCC2)c1CCc1ccc2ccccc2c1 |  |  | 0.89
> 100 | 0.7 | Oc1noc(C2CCNCC2)c1CCCC(c1ccccc1)c1ccccc1 |  |  | 0.05
> 10 | 1.7 | Oc1noc(C2CCNCC2)c1CCc1cccc2ccccc12 |  |  | 1.5
> 100 | 4.9 | Oc1noc(C2CCNCC2)c1CC1CCCCC1 |  |  | 1.1
> 100 | 0.36 | Oc1noc(C2CCNCC2)c1CC(c1ccccc1)c1ccccc1 |  |  | 0.81
> 100 | 1.8 | CCCCCCCCc1c(O)noc1C1CCNCC1 |  |  | 0.44
> 10 | 0.96 | Oc1noc(C2CCNCC2)c1C(c1ccccc1)c1ccccc1 |  |  | 0.78

Structure (SMILES) | IC50 [3] [µM] | Ki [5] [µM] | ED50 [1] [µmol/kg] | ED50 [2] [µmol/kg] | IC50 [4] [µM]
CCCCc1c(O)noc1C1CCNCC1 | > 100 |  |  |  | 3
CCCc1c(O)noc1C1CCNCC1 | > 100 | 6.6 |  |  | 4.6
CCc1c(O)noc1C1CCNCC1 | > 100 |  |  |  | 10.3
CCCCCCc1c(O)noc1C1CCNCC1 | > 100 | 4.5 |  |  | 1.1
Cc1c(O)noc1C1CCNCC1 | > 100 |  |  |  | 26
